Reference: patent US10221173B2, “Chemical compounds” (AstraZeneca AB, priority 2017, dated 2019)
Values after ≈ are worked out from the molar mass of the structure shown.

Experiments:
[1] = target: estrogen receptor (ERα) in CAMA-1 cells (Homo sapiens (Human), UniProt P03372); assay: Western blotting assay, ER down-regulation in CAMA-1; format: cell-based; details: CAMA-1, 100 nM compound, 48 h, vs 100 nM fulvestrant
[2] = target: T1, Estrogen Receptor (ERα) in MCF-7 cells (Homo sapiens (Human), UniProt P03372); assay: Western blotting assay, ER down-regulation in MCF-7; format: cell-based; details: MCF-7, 100 nM compound, 48 h, vs 100 nM fulvestrant
T1 sequence (P03372 whole entry): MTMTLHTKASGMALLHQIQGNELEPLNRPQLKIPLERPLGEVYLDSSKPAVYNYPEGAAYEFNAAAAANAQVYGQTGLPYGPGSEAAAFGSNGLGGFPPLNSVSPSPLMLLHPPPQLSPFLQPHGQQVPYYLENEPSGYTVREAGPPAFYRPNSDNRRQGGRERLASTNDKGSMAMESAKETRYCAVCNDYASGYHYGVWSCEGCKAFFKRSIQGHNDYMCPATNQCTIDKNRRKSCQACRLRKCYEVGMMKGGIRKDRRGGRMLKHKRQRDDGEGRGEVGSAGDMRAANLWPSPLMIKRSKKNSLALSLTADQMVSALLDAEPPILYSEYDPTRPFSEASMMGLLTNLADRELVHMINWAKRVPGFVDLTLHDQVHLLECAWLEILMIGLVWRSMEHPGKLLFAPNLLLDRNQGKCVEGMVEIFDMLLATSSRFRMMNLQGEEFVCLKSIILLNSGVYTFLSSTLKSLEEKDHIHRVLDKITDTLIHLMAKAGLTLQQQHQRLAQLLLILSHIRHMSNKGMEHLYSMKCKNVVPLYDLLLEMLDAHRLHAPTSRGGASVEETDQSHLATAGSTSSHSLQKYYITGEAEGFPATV

[3] = Thermodynamic solubility (shake-flask); format: physicochemical; details: aqueous phosphate buffer, 25 °C, pH 7.4, aqueous buffer, thermodynamic from solid, phosphate buffer pH 7.4, 24 hours
hERG potassium channel = hERG potassium channel (Homo sapiens (Human), UniProt Q12809)
Chain of hERG potassium channel (Q12809 whole entry, the tested form may be a part): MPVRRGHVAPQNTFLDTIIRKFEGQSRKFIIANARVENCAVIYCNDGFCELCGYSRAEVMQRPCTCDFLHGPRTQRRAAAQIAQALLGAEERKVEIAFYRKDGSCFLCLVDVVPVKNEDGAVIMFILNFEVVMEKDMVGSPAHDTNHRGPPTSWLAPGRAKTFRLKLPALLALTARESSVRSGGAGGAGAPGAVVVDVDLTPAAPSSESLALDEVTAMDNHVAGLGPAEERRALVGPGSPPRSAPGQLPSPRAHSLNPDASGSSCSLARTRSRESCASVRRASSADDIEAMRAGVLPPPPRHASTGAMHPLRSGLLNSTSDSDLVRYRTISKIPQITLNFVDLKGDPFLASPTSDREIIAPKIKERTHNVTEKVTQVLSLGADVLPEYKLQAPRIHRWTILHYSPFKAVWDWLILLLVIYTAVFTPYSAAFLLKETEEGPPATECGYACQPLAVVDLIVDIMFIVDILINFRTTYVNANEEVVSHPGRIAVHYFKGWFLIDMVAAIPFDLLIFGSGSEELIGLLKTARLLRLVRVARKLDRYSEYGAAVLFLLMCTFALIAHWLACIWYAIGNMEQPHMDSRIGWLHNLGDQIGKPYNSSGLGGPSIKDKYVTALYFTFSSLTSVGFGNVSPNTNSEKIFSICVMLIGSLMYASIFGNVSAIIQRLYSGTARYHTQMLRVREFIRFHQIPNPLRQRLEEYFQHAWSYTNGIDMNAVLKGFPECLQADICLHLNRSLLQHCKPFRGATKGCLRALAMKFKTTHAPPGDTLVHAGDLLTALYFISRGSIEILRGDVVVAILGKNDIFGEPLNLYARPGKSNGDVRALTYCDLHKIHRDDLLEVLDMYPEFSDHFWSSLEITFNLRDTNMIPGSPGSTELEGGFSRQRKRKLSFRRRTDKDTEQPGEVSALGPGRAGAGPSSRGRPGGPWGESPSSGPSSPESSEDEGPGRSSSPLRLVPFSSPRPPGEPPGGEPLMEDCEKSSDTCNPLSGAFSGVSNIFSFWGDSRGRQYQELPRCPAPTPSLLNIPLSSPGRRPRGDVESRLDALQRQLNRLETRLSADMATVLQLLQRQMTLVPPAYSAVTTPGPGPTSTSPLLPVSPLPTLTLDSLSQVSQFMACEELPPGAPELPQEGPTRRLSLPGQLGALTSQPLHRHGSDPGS

[4] = target: recombinant human Estrogen Receptor alpha ligand binding domain (ER alpha-LBD (GST)) (Homo sapiens (Human), UniProt P03372); assay: ERα binding assay (LanthaScreen TR-FRET competition)
Chain of recombinant human Estrogen Receptor alpha ligand binding domain (ER alpha-LBD (GST)) (P03372 307-554): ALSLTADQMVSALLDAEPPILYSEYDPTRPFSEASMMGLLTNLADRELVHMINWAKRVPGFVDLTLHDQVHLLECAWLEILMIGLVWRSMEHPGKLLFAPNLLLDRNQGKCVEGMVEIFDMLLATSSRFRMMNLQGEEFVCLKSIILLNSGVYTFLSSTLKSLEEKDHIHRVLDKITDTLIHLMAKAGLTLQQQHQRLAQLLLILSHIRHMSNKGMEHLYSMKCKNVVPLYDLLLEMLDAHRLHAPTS

[5] = target: T1, Estrogen Receptor (ERα) in MCF-7 cells; assay: MCF-7 ER down-regulation assay (immuno-fluorescence); format: cell-based
[6] = Log D (shake flask, 1-octanol/aqueous buffer); format: physicochemical; details: 1-octanol/aqueous buffer, pH 7.4, pH 7.4
[7] = Human plasma protein binding (equilibrium dialysis); format: in vitro ADME
Procedure: The automated equilibrium dialysis assay in human plasma uses the RED (Rapid Equilibrium Dialysis) Device and sample handling. The assay generally runs over two to three days including delivery of results. After dialysis for 18 hours, plasma and buffer samples are prepared for analysis by liquid chromatography and mass spectrometry. Samples are generally tested in singlicates and quantified by LC/MSMS by using a 7-point calibration curve in plasma. The compounds are pooled together in plasma pools up to 10 compounds. Three reference compounds are used in each run, Propranolol, Metoprolol and Warfarin. Warfarin is used as a control in each pool and Propranolol and Metoprolol are placed randomly in each run. An in-house Excel macro is used for preparation of files for the robot and the mass spectrometer and is also used for the calculations of fraction unbound (fu %) in plasma.

Chain of estrogen receptor (ERα) in CAMA-1 cells (P03372 whole entry): as the sequence (P03372 whole entry) above

SMILES	CAMA1 Western % ER deg vs Fv [1]	MCF7 Western % ER deg vs Fv [2]	solubility at 24 h [3]	IC50 (hERG potassium channel)	IC50 [4]	IC50 [5]	logD [6]	Human plasma protein binding (% free) [7]
C[C@@H]1Cc2c([nH]c3ccccc23)[C@@H](c2cccc(OCCNCCCF)c2)N1CC1(F)COC1 [Example 1, 3-Fluoro-N-(2-(3-((1R,3R)-2-((3-fluorooxetan-3-yl)methyl)-3-methyl-2,3,4,9-tetrahydro-1H-pyrido[3,4-b]indol-1-yl)phenoxy)ethyl)propan-1-amine]	66%	79%	303 µM (≈ 142 µg/mL)	4400 nM	–	–	–	–
COc1ccc(OCCNCCCF)cc1[C@@H]1c2[nH]c3ccccc3c2C[C@@H](C)N1CC(F)(F)F [Example 7, 3-Fluoro-N-(2-(4-methoxy-3-((1R,3R)-3-methyl-2-(2,2,2-trifluoroethyl)-2,3,4,9-tetrahydro-1H-pyrido[3,4-b]indol-1-yl)phenoxy)ethyl)propan-1-amine]	90%	100%	35 µM (≈ 17.3 µg/mL)	3800 nM	1.5 nM	0.12 nM	3.7	1.5 % free
COc1cnc(OCCNCCCF)cc1[C@@H]1c2[nH]c3ccccc3c2C[C@@H](C)N1CC(F)(F)F [Example 12, 3-fluoro-N-(2-((5-methoxy-4-((1R,3R)-3-methyl-2-(2,2,2-trifluoroethyl)-2,3,4,9-tetrahydro-1H-pyrido[3,4-b]indol-1-yl)pyridin-2-yl)oxy)ethyl)propan-1-amine]	89%	92%	–	8200 nM	0.62 nM	0.059 nM	–	–
C[C@@H]1Cc2c([nH]c3ccccc23)[C@@H](c2c(F)ccc(OCCNCCCF)c2F)N1CC1(F)COC1 [Example 13, N-(2-(2,4-difluoro-3-((1R,3R)-2-((3-fluorooxetan-3-yl)methyl)-3-methyl-2,3,4,9-tetrahydro-1H-pyrido[3,4-b]indol-1-yl)phenoxy)ethyl)-3-fluoropropan-1-amine]	92%	83%	493 µM (≈ 249 µg/mL)	2600 nM	1.6 nM	0.22 nM	2.6	3.5 % free
C[C@@H]1Cc2c([nH]c3ccc(F)cc23)[C@@H](c2c(F)ccc(OCCNCCCF)c2F)N1CC(F)(F)CO [Example 15, 3-((1R,3R)-1-(2,6-difluoro-3-(2-((3-fluoropropyl)amino)ethoxy)phenyl)-6-fluoro-3-methyl-1,3,4,9-tetrahydro-2H-pyrido[3,4-b]indol-2-yl)-2,2-difluoropropan-1-ol]	91%	94%	571 µM (≈ 302 µg/mL)	4600 nM	0.55 nM	0.079 nM	2.9	3.2 % free
CCc1ccc(OCCNCCCF)cc1[C@@H]1c2[nH]c3ccccc3c2C[C@@H](C)N1CC(F)(F)F [Example 21, N-(2-(4-ethyl-3-((1R,3R)-3-methyl-2-(2,2,2-trifluoroethyl)-2,3,4,9-tetrahydro-1H-pyrido[3,4-b]indol-1-yl)phenoxy)ethyl)-3-fluoropropan-1-amine]	95%	99%	3 µM (≈ 1.47 µg/mL)	–	2.6 nM	1.6 nM	4.6	0.10 % free
C[C@@H]1Cc2c([nH]c3ccccc23)[C@@H](c2cc(OCCNCCCF)ccc2Cl)N1CC(F)(F)F [Example 22, N-(2-(4-chloro-3-((1R,3R)-3-methyl-2-(2,2,2-trifluoroethyl)-2,3,4,9-tetrahydro-1H-pyrido[3,4-b]indol-1-yl)phenoxy)ethyl)-3-fluoropropan-1-amine]	96%	96%	0.7 µM (≈ 0.349 µg/mL)	–	1.4 nM	0.12 nM	4.2	0.61 % free
C[C@@H]1Cc2c([nH]c3ccccc23)[C@@H](c2cc(OCCNCCCF)ccc2C#N)N1CC(F)(F)F [Example 23, 4-(2-((3-fluoropropyl)amino)ethoxy)-2-((1R,3R)-3-methyl-2-(2,2,2-trifluoroethyl)-2,3,4,9-tetrahydro-1H-pyrido[3,4-b]indol-1-yl)benzonitrile]	95%	95%	73 µM (≈ 35.7 µg/mL)	5400 nM	2.7 nM	0.5 nM	3.4	3.7 % free
C[C@@H]1Cc2c([nH]c3ccccc23)[C@@H](c2cc(OCCNCCCF)ccn2)N1CC(F)(F)F [Example 35, 3-fluoro-N-(2-((2-((1S,3R)-3-methyl-2-(2,2,2-trifluoroethyl)-2,3,4,9-tetrahydro-1H-pyrido[3,4-b]indol-1-yl)pyridin-4-yl)oxy)ethyl)propan-1-amine]	92%	94%	222 µM (≈ 103 µg/mL)	5600 nM	1.9 nM	1.1 nM	3.1	5.4 % free
C[C@@H]1Cc2c([nH]c3ccccc23)[C@@H](c2cc(OCCNCCCF)ccc2Cl)N1CC(F)(F)CO [Example 44, 3-((1R,3R)-1-(2-chloro-5-(2-((3-fluoropropyl)amino)ethoxy)phenyl)-3-methyl-1,3,4,9-tetrahydro-2H-pyrido[3,4-b]indol-2-yl)-2,2-difluoropropan-1-ol]	94%	95%	278 µM (≈ 142 µg/mL)	2900 nM	1 nM	0.14 nM	3.3	2.3 % free
COc1ccc(OCCNCCCF)cc1[C@@H]1c2[nH]c3ccc(F)cc3c2C[C@@H](C)N1CC(F)(F)CO [Example 46, 2,2-difluoro-3-((1R,3R)-6-fluoro-1-(5-(2-((3-fluoropropyl)amino)ethoxy)-2-methoxyphenyl)-3-methyl-1,3,4,9-tetrahydro-2H-pyrido[3,4-b]indol-2-yl)propan-1-ol]	89%	83%	462 µM (≈ 242 µg/mL)	2700 nM	1 nM	0.22 nM	2.8	2.4 % free
C[C@@H]1Cc2c([nH]c3ccccc23)[C@@H](c2c(F)ccc(OCCNCCCF)c2F)N1CC(F)F [Example 51, N-(2-(3-((1R,3R)-2-(2,2-difluoroethyl)-3-methyl-2,3,4,9-tetrahydro-1H-pyrido[3,4-b]indol-1-yl)-2,4-difluorophenoxy)ethyl)-3-fluoropropan-1-amine]	93%	92%	122 µM (≈ 58.7 µg/mL)	4100 nM	1.2 nM	0.12 nM	3.2	2.3 % free
C[C@@H]1Cc2c([nH]c3ccccc23)[C@@H](c2c(F)ccc(OCCNCCCF)c2F)N1C[C@H](C)C(=O)O [Example 58, (S)-3-((1R,3R)-1-(2,6-difluoro-3-(2-((3-fluoropropyl)amino)ethoxy)phenyl)-3-methyl-1,3,4,9-tetrahydro-2H-pyrido[3,4-b]indol-2-yl)-2-methylpropanoic acid]	83%	76%	> 1000 µM	–	–	–	–	–
C[C@@H]1Cc2c([nH]c3ccccc23)[C@@H](c2nccc(OCCNCCCF)c2F)N1CC(F)(F)F [Example 92, 3-fluoro-N-(2-((3-fluoro-2-((1S,3R)-3-methyl-2-(2,2,2-trifluoroethyl)-2,3,4,9-tetrahydro-1H-pyrido[3,4-b]indol-1-yl)pyridin-4-yl)oxy)ethyl)propan-1-amine]	91%	93%	468 µM (≈ 226 µg/mL)	23000 nM	1.6 nM	0.4 nM	2.7	–
Cc1c(OCCNCCCF)ncc(F)c1[C@@H]1c2[nH]c3ccccc3c2C[C@@H](C)N1CC(F)(F)CO [Example 110, 2,2-difluoro-3-((1R,3R)-1-(5-fluoro-2-(2-((3-fluoropropyl)amino)ethoxy)-3-methylpyridin-4-yl)-3-methyl-1,3,4,9-tetrahydro-2H-pyrido[3,4-b]indol-2-yl)propan-1-ol]	83%	91%	939 µM (≈ 478 µg/mL)	2800 nM	0.43 nM	0.045 nM	3.1	–
C[C@@H]1Cc2c([nH]c3ccccc23)[C@@H](c2c(F)cnc(OCCNCCCF)c2Cl)N1CC(F)(F)CO [Example 111, 3-((1R,3R)-1-(3-chloro-5-fluoro-2-(2-((3-fluoropropyl)amino)ethoxy)pyridin-4-yl)-3-methyl-1,3,4,9-tetrahydro-2H-pyrido[3,4-b]indol-2-yl)-2,2-difluoropropan-1-ol]	92%	84%	469 µM (≈ 248 µg/mL)	–	0.6 nM	0.07 nM	3.1	1.4 % free
